# Measured values published in patent US9447014B2, “Tromethamine salt of bimatoprost acid in crystalline form, methods for preparation, and methods for use thereof” (ALLERGAN, INC., priority 2012, dated 2016).
# Counter-ions that a name gives are not always drawn. Like-named read-outs stand apart in the source and are kept apart here.
# What was measured:
# Assay type in all cases: physicochemical
# [1] = physical stability on storage
# [2] = solubility of the tromethamine salt
# [3] = gravimetric vapor sorption (GVS) analysis
# From the text: At relative humidity above 80% RH, tromethamine salt of bimatoprost acid behaves hygroscopic with a a significant moisture uptake observed. The significant uptake of moisture may be a result of the large specific surface area of the material. On desorption, the adsorbed water was rapidly lost with no equilibrium established. At the end of the gravimetric vapor sorption (GVS) cycle, at 40% RH, the overall sample mass increased by 5 wt %.
# [4] = dissolution rate compared with the free acid
compound,measurement,setting,value
"O=C(O)CCC/C=C/CC1C(O)CC(O)C1/C=C/C(O)CCc1ccccc1 (stereo not shown) [tromethamine salt of bimatoprost acid, tromethamine salt of 7-[3,5-Dihydroxy-2-(3-hydroxy-5-phenyl-pent-1-enyl)-cyclopentyl]-hept-5-enoic acid]",physical stability,[1]; 25° C./60% RH in open container closure,> 3 months
same,physical stability,[1]; 40° C./75% RH in closed container closure,> 3 months
same,solubility,"[2]; aqueous buffer, at pH 6.5, read-out: solubility",> 250 mg/mL
same,solubility,"[2]; in formulation vehicles, no surfactant needed",~25 w/v %
same,GVS analysis: deliquescence,[3]; 90% RH,no deliquescence
same,GVS analysis: hydrate formation,[3]; 90% RH,no hydrate
same,overall sample mass increase at the end of the GVS cycle,"[3]; end of GVS cycle, at 40% RH",5 wt %
same,XRPD re-analysis post GVS analysis (change in crystalline form),[3]; post GVS analysis,no change in the crystalline Form 1
same,hygroscopic behaviour (moisture uptake),[3]; relative humidity above 80% RH,hygroscopic
same,dissolution rate,[4],faster dissolution rate than the free acid
